Test results reported in patent US20250295674A1, “NEUROACTIVE STEROIDS FOR TREATMENT OF CNS-RELATED DISORDERS” (Sage Therapeutics, Inc., priority 2022, published 2025).

Assays:
[1] = test system: patients with major depressive disorder (MDD); settings: TEAEs: nausea/vomiting, diarrhoea, abdominal pain, dyspepsia, anorexia, dry mouth; cited from earlier work
adults with MDD [2] = assay: Phase 3 CORAL study: treatment-emergent adverse events (safety set); type: in vivo, human; settings: 50 mg once daily 14 days co-initiated with ADT
Procedure: This was a randomized, double-blind, parallel-group, placebo-controlled study in adults with MDD. The diagnosis of MDD was made according to Structured Clinical Interview for Diagnostic and Statistical Manual of Mental Disorders, Fifth Edition (DSM-5) Clinical Trial Version (SCID 5-CT) performed by a qualified healthcare professional.
Participants were randomized to receive blinded Compound (1) 50 mg or placebo for administration each evening from Days 1 through 14. In addition, all participants received 1 of 2 classes of ADTs: a selective serotonin reuptake inhibitor (SSRI; sertraline, escitalopram, citalopram) or a serotonin-norepinephrine reuptake inhibitor (SNRI; duloxetine or desvenlafaxine) in an open-label manner from Day 1 through the end of the study. The ADT was administered per labeled prescribing information. The investigator assigned 1 of the 5 ADTs based on clinical standard of care; the participant must not have had been previously treated with the assigned ADT within the current depressive episode and must not have had taken any ADT within 30 days prior to Day 1 (or taken fluoxetine within 60 days prior to Day 1). Randomization was stratified by ADT class (SSRI or SNRI). […]

adults with MDD [3] = settings: responders to first 14-day course of 50 mg who continued beyond Day 28; up to 1 year follow-up; cited from earlier work
patients with MDD or PPD = settings: cited from earlier work

For `CN(C)CCC[C@@]1(c2ccc(F)cc2)OCc2cc(C#N)ccc21` [escitalopram], the “tolerability on the gastrointestinal tract among antidepressants (in words)” value [1] is given as “least tolerated”.
For `C[C@@]1(O)CC[C@H]2[C@H](CC[C@@H]3[C@@H]2CC[C@]2(C)[C@@H](C(=O)Cn4cc(C#N)cn4)CC[C@@H]32)C1` [Compound (1), 1-(2-((3R,5R,8R,9R,10S,13S,14S,17S)-3-hydroxy-3,13-dimethylhexadecahydro-1H-cyclopenta[a]phenanthren-17-yl)-2-oxoethyl)-1H-pyrazole-4-carbonitrile], the “tolerability (in words)” value (adults with MDD [2]) is given as “generally-well tolerated”, the “patients who received a total of 1 or 2 treatment courses” value (adults with MDD [3]) is given as “approximately 80%” and the “onset of effect on depressive symptoms” value (patients with MDD or PPD; 50 mg vs placebo, patients with MDD or PPD) is given as “Day 2 or 3”. The minimally effective dose (patients with MDD or PPD; previous Compound (1) studies in MDD) was 30 mg.
For `CN[C@H]1CC[C@@H](c2ccc(Cl)c(Cl)c2)c2ccccc21` [sertraline], the “tolerability on the gastrointestinal tract among antidepressants (in words)” value [1] is given as “least tolerated”.
